Two compounds from ChEMBL document CHEMBL1240301, “Assignment of protein function in the postgenomic era” (Nat Chem Biol, 2005) can be followed below.

In assay [1] the target is Calcium/calmodulin-dependent protein kinase type II subunit alpha (Homo sapiens, UniProt Q9UQM7, F89G). The assay can be described thus: Inhibition of CAMK2 F89G mutant.
The target in assay [2] is Cyclin-dependent kinase 2 (Homo sapiens, UniProt P24941). The assay can be described thus: Inhibition of wild type CDK2.
A short description of assay [3]: Inhibition of wild-type v-Src.
Assay [4] is described as follows: Inhibition of c-Fyn T339G mutant.
Assay [5] concerns the target Cyclin-dependent kinase 2 (Homo sapiens, UniProt P24941, F80G). The assay can be described thus: Inhibition of CDK2 F80G mutant.
A short description of assay [6]: Inhibition of wild type CAMK2.
The nature of assay [7]: Inhibition of v-Src kinase I338G mutant.
Assay [8] addresses Tyrosine-protein kinase ABL1 (Homo sapiens, UniProt P00519). In words: Inhibition of wild type c-Abl.
Assay [9] deals with Tyrosine-protein kinase Fyn (Homo sapiens, UniProt P06241). The assay can be described thus: Inhibition of wild type c-Fyn.
Assay [10] deals with Tyrosine-protein kinase ABL1 (Homo sapiens, UniProt P00519, T315A). In words: Inhibition of c-Abl T315A mutant.
Sequence of Tyrosine-protein kinase ABL1 (Homo sapiens, UniProt P00519, T315A) (P00519 whole entry T315A): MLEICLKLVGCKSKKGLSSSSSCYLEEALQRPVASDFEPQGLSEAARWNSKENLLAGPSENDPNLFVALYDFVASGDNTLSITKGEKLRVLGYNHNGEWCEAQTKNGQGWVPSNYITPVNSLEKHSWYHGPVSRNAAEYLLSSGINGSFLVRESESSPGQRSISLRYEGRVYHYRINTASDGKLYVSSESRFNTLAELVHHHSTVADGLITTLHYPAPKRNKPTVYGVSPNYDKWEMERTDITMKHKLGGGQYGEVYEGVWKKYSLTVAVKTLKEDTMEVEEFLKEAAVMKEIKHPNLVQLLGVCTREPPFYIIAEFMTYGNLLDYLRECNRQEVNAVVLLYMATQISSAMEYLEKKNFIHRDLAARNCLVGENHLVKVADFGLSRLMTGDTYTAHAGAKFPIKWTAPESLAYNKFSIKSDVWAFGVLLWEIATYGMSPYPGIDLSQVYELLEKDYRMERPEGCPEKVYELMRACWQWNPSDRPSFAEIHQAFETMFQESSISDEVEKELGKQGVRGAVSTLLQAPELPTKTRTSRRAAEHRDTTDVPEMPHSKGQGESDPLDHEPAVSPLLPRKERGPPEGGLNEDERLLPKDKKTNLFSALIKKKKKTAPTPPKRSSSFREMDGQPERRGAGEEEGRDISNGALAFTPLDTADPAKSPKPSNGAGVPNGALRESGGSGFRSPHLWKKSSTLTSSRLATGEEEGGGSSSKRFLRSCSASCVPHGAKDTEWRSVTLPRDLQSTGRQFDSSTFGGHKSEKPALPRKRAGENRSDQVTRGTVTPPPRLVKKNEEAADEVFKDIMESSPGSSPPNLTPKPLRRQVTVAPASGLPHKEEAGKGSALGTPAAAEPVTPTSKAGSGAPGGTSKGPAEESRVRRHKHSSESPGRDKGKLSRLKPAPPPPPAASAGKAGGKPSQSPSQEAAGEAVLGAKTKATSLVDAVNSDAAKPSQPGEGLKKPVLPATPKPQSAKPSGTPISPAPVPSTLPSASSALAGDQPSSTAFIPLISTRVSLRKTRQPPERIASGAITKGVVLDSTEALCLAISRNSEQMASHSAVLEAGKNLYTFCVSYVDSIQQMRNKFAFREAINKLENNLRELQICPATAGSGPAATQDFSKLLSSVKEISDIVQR

Sequence of Calcium/calmodulin-dependent protein kinase type II subunit alpha (Q9UQM7 whole entry F89G): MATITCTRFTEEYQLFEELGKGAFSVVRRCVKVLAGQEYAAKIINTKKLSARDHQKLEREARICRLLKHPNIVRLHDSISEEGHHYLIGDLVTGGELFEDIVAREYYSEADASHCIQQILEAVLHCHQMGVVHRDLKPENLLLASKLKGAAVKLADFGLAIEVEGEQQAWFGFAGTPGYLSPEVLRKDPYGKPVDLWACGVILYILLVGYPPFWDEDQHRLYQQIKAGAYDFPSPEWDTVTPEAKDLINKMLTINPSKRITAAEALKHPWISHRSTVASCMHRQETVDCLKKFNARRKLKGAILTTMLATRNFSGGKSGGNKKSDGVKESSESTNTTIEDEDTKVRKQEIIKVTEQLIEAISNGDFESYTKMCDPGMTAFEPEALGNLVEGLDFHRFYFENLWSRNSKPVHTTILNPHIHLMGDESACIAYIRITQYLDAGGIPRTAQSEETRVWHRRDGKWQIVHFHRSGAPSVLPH
Sequence of Tyrosine-protein kinase ABL1 (Homo sapiens, UniProt P00519) (P00519 whole entry): as the sequence (P00519 whole entry T315A) above, with A315T counted along it
Sequence of Tyrosine-protein kinase Fyn (P06241 whole entry): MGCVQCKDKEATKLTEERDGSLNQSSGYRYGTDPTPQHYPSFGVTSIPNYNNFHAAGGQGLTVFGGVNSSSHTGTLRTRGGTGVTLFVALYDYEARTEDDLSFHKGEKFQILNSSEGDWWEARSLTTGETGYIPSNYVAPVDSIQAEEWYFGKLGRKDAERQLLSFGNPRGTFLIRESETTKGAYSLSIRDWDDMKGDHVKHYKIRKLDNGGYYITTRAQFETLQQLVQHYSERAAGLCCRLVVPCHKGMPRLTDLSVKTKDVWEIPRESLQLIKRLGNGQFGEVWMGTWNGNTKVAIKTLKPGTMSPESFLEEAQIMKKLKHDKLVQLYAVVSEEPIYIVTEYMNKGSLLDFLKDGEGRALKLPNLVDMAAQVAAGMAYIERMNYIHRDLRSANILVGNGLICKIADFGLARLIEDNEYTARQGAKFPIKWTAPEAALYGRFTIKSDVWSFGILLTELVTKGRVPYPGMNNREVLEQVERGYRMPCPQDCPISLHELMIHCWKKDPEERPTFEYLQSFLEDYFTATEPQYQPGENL

Take `CC(C)(C)n1nc(-c2cccc3ccccc23)c2c(N)ncnc21`: the IC50 is 0.097 µM in assay [1]; 18 µM in assay [2]; 1 µM in assay [3]; 0.0065 µM in assay [4]; 0.015 µM in assay [5]; 22 µM in [6]. Further, in [7], the IC50 was 0.0015 µM.

For `CC(C)(C)n1nc(Cc2cccc3ccccc23)c2c(N)ncnc21`, the IC50 in [2] was 29 µM; in [8], 3.4 µM; in assay [9], 1 µM; in assay [3] it was 28 µM; in assay [4], 0.0032 µM; in assay [6], 24 µM. For the same compound, the IC50 amounted to 0.0043 µM in assay [7] and 0.12 µM in assay [10].
